Source: patent US8349885B2, “Indole and indazole derivatives having a cell-, tissue- and organ-preserving effect” (LG Life Sciences Ltd., priority 2008, dated 2013)

Key:
Format in all cases: cell-based
[1] = test system: primary cultured hepatocytes; assay: Cell-protecting effect against cold shock in primary cultured hepatocytes (WST-1); settings: Rattus norvegicus, Hepatocyte, 37° C. for 1 hour, 4° C. for 22 hours, then 37° C., cell viability by WST-1
Method: In order to reproduce a condition for preservation prior to organ transplantation, primary cultured hepatocytes were prepared according to Experimental Example 1 and treated with the compounds of the working examples at 9 different concentrations that had been prepared by 3-fold serial dilution method using a starting concentration of 25 μM. The mixture was cultured at 37° C. for 1 hour, stored at 4° C. for 22 hours, and then transferred into an incubator at 37° C. and cultured therein. Cell viability was measured by the optical density at 440 nm according to the WST-1 method (MK-400, Takeda), and IC50 (unit: μM) was obtained using prism software (see Table 1).

[2] = test system: primary hepatocytes isolated from rats; assay: Hepatocyte-protecting effect: viability of isolated primary hepatocytes in culture (WST-1); settings: rat primary hepatocytes; treated at 1 or 10 μM; WST-1, optical density at 440 nm
Method: If cells are isolated from in vivo environment and their culture or preservation in vitro is begun, it would act as a stress to cells, and the apoptosis mechanism would begin to work. For preservation of organs or tissues, it is necessary to protect them from such a primary stress.
In order to verify this, primary hepatocytes isolated from rats were treated with the compounds of the working examples to observe how well the compounds can protect them from a primary stress. Primary hepatocytes were isolated using the Seglen PO method (Experimental Cell Research 74 (1972) pp. 450-454). Briefly, hepatocytes were isolated according to the two-step collagenase perfusion method and then centrifuged using percoll gradient (Kreamer BL etc., In Vitro Cellular & Developmental Biology 22 (1986) pp. 201-211) at low speed (500 rpm) for 10 minutes to remove dead cells. Viability of hepatocytes was maintained at 90% or more. Cells were suspended in HepatoZYME media (Gibco BRL) and counted. 1.5×10^4 cells of 100 μl were put into a 96-well plate (BD biocoat) coated with collagen and attached to the bottom for 3-4 hours. […] After 24, 72 or 144 hours, cell viability was measured to evaluate a hepatocyte-protecting effect.
Cell viability was measured by the optical density at 440 nm according to the WST-1 method (MK-400, Takeda). […]

[3] = test system: human embryonic lung cell line (LB-HEL); assay: Cell-protecting effect against cold shock in LB-HEL cells (WST-1); settings: cold shock at 4° C. for 24 hours, then 37° C., cell viability by WST-1
Method: The same results as above were also obtained in other types of cells such as human embryonic lung cell line (LB-HEL) as well as hepatocytes (see FIG. 2 and Table 2). More specifically, LB-HEL cells were plated at 1.5×10^6 cells/well using DMEM medium (Gibco BRL) and treated with DMSO, nec-1, IM-54 or the compounds of Examples 126, 127, 137 and 138 at indicated concentrations. After storage at 4° C. for 24 hours, the mixture was transferred into an incubator at 37° C. and cultured therein. In order to verify recovery capacity at 37° C., cell viability after 24 hours post-transfer was measured by the optical density at 440 nm according to the WST-1 method (MK-400, Takeda) and compared with cell viability prior to cold shock (FIG. 2).

SMILES	IC50 [1]	IC50 [3]	other results
OC[C@@H]1CSC(c2cc3cccc(NC4CCCC4)c3[nH]2)=N1 [Example 5, [(R)-2-(7-cyclopentylamino-1H-indol-2-yl)-4,5-dihydro-1,3-thiazol-4-yl]-methanol]	< 120 nM	–	–
OC[C@@H]1CSC(c2cc3cccc(NC4CCOCC4)c3[nH]2)=N1 [Example 7, {(R)-2-[7-(tetrahydro-pyran-4-ylamino)-1H-indol-2-yl]-4,5-dihydro-thiazol-4-yl}-methanol]	< 400 nM	–	–
O=C(O)C[C@@H]1CSC(c2cc3cc(Br)cc(NC4CCCC4)c3[nH]2)=N1 [Example 16, [(R)-2-(5-bromo-7-cyclopentylamino-1H-indol-2-yl)-4,5-dihydro-thiazol-4-yl]-acetic acid]	3560 nM	–	–
CCOc1cc(NC2CCCC2)c2[nH]c(C3=N[C@H](CC(=O)O)CS3)cc2c1 [Example 17, [(R)-2-(7-cyclopentylamino-5-ethoxy-1H-indol-2-yl)-4,5-dihydro-thiazol-4-yl]-acetic acid]	< 120 nM	–	–
O=C(O)C[C@H]1CSC(c2cc3cc(Oc4ccccc4)cc(NC4CCCC4)c3[nH]2)=N1 [Example 21, [(S)-2-(7-cyclopentylamino-5-phenoxy-1H-indol-2-yl)-4,5-dihydro-thiazole-4-yl]-acetic acid]	< 120 nM	–	viability after 144 hours, compared with viability after 24 hours [2]: ≥ 80%
CCOC(=O)CC[C@@H]1CSC(c2cc3cc(Cl)cc(NC4CCCC4)c3[nH]2)=N1 [Example 22, 3-[(R)-2-(5-chloro-7-cyclopentylamino-1H-indol-2-yl)-4,5-dihydro-thiazol-4-yl]-propionic acid ethyl ester]	970 nM	–	–
c1ccc(-c2cc3cccc(NC4CCCC4)c3[nH]2)nc1 [Example 24, cyclopentyl-(2-pyridin-2-yl-1H-indol-7-yl)amine]	< 120 nM	–	–
Cc1cc(NC2CCCC2)c2[nH]c(-c3nc(C(=O)O)cs3)cc2c1 [Example 29, 2-(7-cyclopentylamino-5-methyl-1H-indol-2-yl)-thiazole-4-carboxylic acid]	1460 nM	–	–
Cc1cc(NC2CCCC2)c2[nH]c(-c3nc(CO)cs3)cc2c1 [Example 30, [2-(7-cyclopentylamino-5-methyl-1H-indol-2-yl)-thiazole-4-yl]-methanol]	< 120 nM	–	–
Cc1cc(NC2CCCC2)c2[nH]c(-c3nnco3)cc2c1 [Example 32, cyclopentyl-(5-methyl-2-[1,3,4]oxadiazol-2-yl-1H-indol-7-yl)-amine]	< 120 nM	–	–
Cc1cc(NC2CCC(=O)CC2)c2[nH]c(-c3ccccn3)cc2c1 [Example 38, 4-(5-methyl-2-pyridin-2-yl-1H-indol-7-ylamino)-cyclohexanone]	< 120 nM	–	–
Cc1cc(NCC2CCCC2)c2[nH]c(-c3ccccn3)cc2c1 [Example 40, cyclopentylmethyl-(5-methyl-2-pyridin-2-yl-1H-indol-7-yl)-amine]	< 120 nM	–	–
Cc1cc(NC2CCCC2)c2[nH]c(C3CCCCC3)cc2c1 [Example 47, (2-cyclohexyl-5-methyl-1H-indol-7-yl)-cyclopentyl-amine]	< 120 nM	–	–
CC(=O)N1CCC(Nc2cc(C)cc3cc(-c4ccccc4)[nH]c23)CC1 [Example 51, 1-[4-(5-methyl-2-phenyl-1H-indol-7-ylamino)-piperidin-1-yl]-ethanone]	260 nM	–	–
Cc1cc(NC2CCC(C(=O)NCCN3CCOCC3)CC2)c2[nH]c(-c3ccccc3)cc2c1 (stereo not shown) [Example 56, 4-(5-methyl-2-phenyl-1H-indol-7-ylamino)-cyclohexane carboxylic acid (2-morpholin-4-yl-ethyl)-amide]	200 nM	–	–
Cc1cc(NCC2CCOCC2)c2[nH]c(-c3ccccc3)cc2c1 [Example 58, (5-methyl-2-phenyl-1H-indol-7-yl)-(tetrahydro-pyran-4-ylmethyl)-amine]	< 120 nM	–	–
O=C(O)Cc1cc(NC2CCCC2)c2[nH]c(-c3ccccc3)cc2c1 [Example 75, (7-cyclopenthylamino-2-phenyl-1H-indol-5-yl)-acetic acid]	< 120 nM	–	–
OCCc1cc(NC2CCCC2)c2[nH]c(-c3ccccc3)cc2c1 [Example 76, 2-(7-cyclopenthylamino-2-phenyl-1H-indol-5-yl)-ethanol]	< 120 nM	–	–

SMILES	IC50 [1]	IC50 [3]	other results
Cc1cc(NC2CCC(F)(F)CC2)c2[nH]c(C3=NC(CC(=O)O)CS3)cc2c1 (stereo not shown) [Example 79]	–	3300 nM	–
O=C(O)CC1CSC(c2cc3cccc(NC4CCCC4)c3[nH]2)=N1 (stereo not shown) [Example 83]	729 nM	3660 nM	–
CC(=O)N1CCC(Nc2cccc3cc(C4=NC(CC(=O)O)CS4)[nH]c23)C1 (stereo not shown) [Example 84]	–	7110 nM	–
O=S1(=O)CCN(Cc2cc(NC3CCOCC3)c3[nH]c(-c4ccccc4)c(Br)c3c2)CC1 [Example 139]	–	< 100 nM	–
Brc1c(-c2ccccc2)[nH]c2c(NC3CCOCC3)cc(CN3CCOCC3)cc12 [Example 140, [3-bromo-(5-morpholin-4-yl)methyl-2-phenyl-1H-indol-7-yl]-(tetrahydropyran-4-yl)-amine]	–	< 100 nM	–
O=S1(=O)CCN(Cc2cc(NC3CCCC3)c3[nH]c(-c4ccccc4)c(Br)c3c2)CC1 [Example 141, [3-bromo-5-(1,1-dioxo-thiomorpholin-4-yl methyl)-2-phenyl-1H-indol-7-yl]-cyclopentyl-amine]	–	< 100 nM	–
O=S1(=O)CCN(Cc2cc(NCC3CCOCC3)c3[nH]c(-c4ccccc4)c(Br)c3c2)CC1 [Example 142, [3-bromo-5-(1,1-dioxo-thiomorpholin-4-ylmethyl)-2-phenyl-1H-indol-7-yl]-(tetrahydro-pyran-4-ylmethyl)-amine]	300 nM	< 100 nM	–
Clc1cc(NC2CCOCC2)c2[nH]cc(-c3ccccc3)c2c1 [Example 143, (5-chloro-3-phenyl-1H-indol-7-yl)-(tetrahydro-pyran-4-yl)-amine]	–	< 100 nM	–
Clc1cc(NC2CCCC2)c2[nH]cc(-c3ccccc3)c2c1 [Example 144, (5-chloro-3-phenyl-1H-indol-7-yl)-(cyclopentyl)-amine]	–	< 100 nM	–
Clc1cc(NCC2CCOCC2)c2[nH]cc(-c3ccccc3)c2c1 [Example 145, (5-chloro-3-phenyl-1H-indol-7-yl)-(tetrahydropyran-4-ylmethyl)-amine]	–	< 100 nM	–
C[Si](C)(C)c1[nH]c2c(NC3CCOCC3)cc(CN3CCS(=O)(=O)CC3)cc2c1-c1ccccc1 [Example 146, [5-(1,1-dioxo-thiomorpholin-4-ylmethyl)-3-phenyl-2-trimethylsilanyl-1H-indol-7-yl]-(tetrahydropyran-4-yl)-amine]	603 nM	823 nM	–
O=C1CN(Cc2c(-c3ccccc3)[nH]c3c(NC4CCCC4)cc(Cl)cc23)CCN1 [Example 147, 4-(5-chloro-7-cyclopentylamino-2-phenyl-1H-indol-3-ylmethyl)-piperazin-2-one]	–	1080 nM	–
O=C1CN(Cc2c(-c3ccccc3)[nH]c3c(NC4CCOCC4)cc(Cl)cc23)CCN1 [Example 148, 4-[5-chloro-2-phenyl-7-(tetrahydropyran-4-ylamino)-1H-indol-3-ylmethyl]-piperazin-2-one]	–	2350 nM	–
O=C1CN(Cc2c(-c3ccccc3)[nH]c3c(NCC4CCOCC4)cc(Cl)cc23)CCN1 [Example 149, 4-{5-chloro-2-phenyl-7-[(tetrahydropyran-4-ylmethyl)-amino]-1H-indol-3-ylmethyl}-piperazin-2-one]	–	1450 nM	–
COc1ccc(-c2n[nH]c3c(NC4CCCC4)cccc23)cc1 [Example 150, cyclopentyl-[3-(4-methoxyphenyl)-1H-indazol-7-yl]-amine]	–	210 nM	–
COc1ccc(-c2n[nH]c3c(NC4CCOCC4)cccc23)cc1 [Example 151, [3-(4-methoxyphenyl)-1H-indazol-7-yl]-(tetrahydropyran-4-yl)-amine]	–	384 nM	–
COc1ccc(-c2n[nH]c3c(NCC4CCOCC4)cccc23)cc1 [Example 152, [3-(4-methoxyphenyl)-1H-indazol-7-yl]-(tetrahydropyran-4-ylmethyl)-amine]	–	590 nM	–
C[C@H](NC(=O)C(=O)Nc1ccccc1C(C)(C)C)C(=O)N[C@@H](CC(=O)O)C(=O)COc1c(F)c(F)cc(F)c1F [IDN6556, reference compound]	–	–	viability after 72 hours, compared with viability after 24 hours [2]: about 50%
